From patent US9328106B2, “Cyclic ether pyrazol-4-yl-heterocyclyl-carboxamide compounds and methods of use” (Genentech, Inc., priority 2012, dated 2016)
Like-named read-outs stand apart in the source and are kept apart here.

Columns and labels:
[1] = biological target: PIM1 (Homo sapiens (Human), UniProt P11309); experiment: biochemical; assay type: biochemical; conditions: 20 pM PIM1, 1 μM FAM-peptide, 10 μM ATP, 90 minutes at room temperature; read-out: PIM1 LC3K (KI)
Description: Reaction Buffer contained 10 mM HEPES, pH 7.2, 10 mM MgCl2, 0.01% Tween 20, 2 mM DTT. Termination Buffer contained 190 mM HEPES, pH 7.2, 0.015% Brij-35, 0.2% Coating Reagent 3 (Caliper Life Sciences, Hopkinton, Mass.), 20 mM EDTA. Separation Buffer contained 100 mM HEPES, pH 7.2, 0.015% Brij-35, 0.1% Coating Reagent 3, 1:200 Coating Reagent 8 (Caliper Life Sciences, Hopkinton, Mass.), 10 mM EDTA and 5% DMSO.
PIM reactions were carried out in a final volume of 10 μL per well in a 384-well plate. […] After 90 minutes of incubation at room temperature, the phosphorylation reaction was stopped by the addition of 10 μL Termination Buffer. The product and substrate in each independent reaction were separated on a 12-sipper microfluidic chip (Caliper Life Sciences, Hopkinton, Mass.) run on a Caliper LC3000® (Caliper Life Sciences, Hopkinton, Mass.). The separation of product and substrate was optimized by choosing voltages and pressure using Caliper's Optimizer software (Hopkinton, Mass.). The separation conditions used a downstream voltage of −500V, an upstream voltage of −2150V, and a screening pressure of −1.2 psi. […] Substrate conversion was calculated from the electropherogram using HTS Well Analyzer software (Caliper Life Sciences, Hopkinton, Mass.). Ki values for the test compound were calculated.

[2] = tested on: BaF3 parental cells; experiment: In vitro cell proliferation, BaF3 parental line + IL3; assay type: cell-based, murine; conditions: Mus musculus, BaF3, BaF3 parental, mIL-3, incubated overnight, CELL TITER GLO; read-out: Prolif BaF3 IL3 (IC50);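 further: BaF3 parental cells are murine IL-3 dependent pro-B cells grown with 2 ng/mL mIL-3, 384-well format, viability read by luminescence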
[3] = tested on: BaF3 PIM1 cells; experiment: In vitro cell proliferation, BaF3 transfected with PIM1; assay type: cell-based, murine; conditions: Mus musculus;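 further: murine IL-3-dependent pro-B BaF3 cells transfected with PIM1, compound exposure overnight at 37 °C under 5% CO2, viability read as luminescence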
Description: (§1) BaF3 parental line was obtained from the DSMZ repository. […] Media for BaF3 parental line contained RPMI, 10% FBS, 2 mM L-Glutamine, 2 ng/mL mIL-3. Media for BaF3 PIM1 & 2 lines contained RPMI, 10% FBS, 2 mM L-Glutamine, 250 μg/mL. Media for MM1.S (multiple myeloma cells) line contained RPMI, 10% FBS, 2 mM L-Glutamine.
(§2) BaF3, a murine interleukin-3 dependent pro-B cell line, parental cells, BaF3 PIM1 cells, BaF3 PIM2 cells, and MM1.S (multiple myeloma) cells were seeded at 2 k/well, 5 k/well, 5 k/well, and 10 k/well respectively, in a 384-well plate, at 45 μL/well. Test compound was added at 5 μL/well. BaF3 cells (parental and transfected) were incubated overnight, while MM1.S cells were incubated for 72 hours at 37° C., 5% CO2. CELL TITER GLO® Reagent (Promega) was added at 50 μL/well, the plates were incubated for 30 minutes, and their luminescence read on an HT Analyst. IC50/EC50 values for the test compound were calculated.

[4] = tested on: MM1.S (multiple myeloma) cells; experiment: In vitro cell proliferation, MM1.S multiple myeloma cells; assay type: cell-based; conditions: Homo sapiens, MM1.S, 72 h, MM1.S cells, 72 hours, CELL TITER GLO; read-out: Prolif MM1S ATP (EC50);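 further: cells cultured in RPMI with 10% FBS and 2 mM L-Glutamine, seeded in 384-well plates, exposed to compound, cell viability measured by luminescence after CellTiter-Glo addition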
Description: as §1, §2

[5] = BaF3, read-out: Prolif BaF3 PIM1 (IC50), BaF3 PIM1 cells, incubated overnight, CELL TITER GLO
[6] = BaF3 PIM1 cells, incubated overnight, CELL TITER GLO, read-out: Prolif BaF3 PIM1 (IC50)

Chain of PIM1 (P11309 whole entry): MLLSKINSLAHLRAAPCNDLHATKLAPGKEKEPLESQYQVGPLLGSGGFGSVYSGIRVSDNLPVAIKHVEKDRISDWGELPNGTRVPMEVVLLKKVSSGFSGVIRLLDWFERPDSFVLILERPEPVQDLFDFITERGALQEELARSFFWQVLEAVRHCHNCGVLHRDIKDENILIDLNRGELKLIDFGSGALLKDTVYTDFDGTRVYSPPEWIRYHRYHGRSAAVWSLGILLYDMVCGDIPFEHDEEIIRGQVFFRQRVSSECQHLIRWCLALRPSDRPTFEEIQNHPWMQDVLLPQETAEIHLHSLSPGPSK

| SMILES | Ki [1] | IC50 [2] | IC50 [3, 5] | EC50 [4] | IC50 [3, 6] |
| --- | --- | --- | --- | --- | --- |
| Cc1sc(-c2c(F)cccc2F)nc1C(=O)Nc1cnn(C)c1[C@@H]1CC[C@@H](N)[C@H](F)CO1 [Example 370, N-[5-[(2S,5R,6S)-5-amino-6-fluoro-oxepan-2-yl]-1-methyl-pyrazol-4-yl]-2-(2,6-difluorophenyl)-5-methyl-thiazole-4-carboxamide] | 0.382 nM | 6400 nM | 675 nM | 1800 nM | – |
| CC(C)Oc1ncccc1-c1nc(C(=O)Nc2cnn(C)c2[C@@H]2CC[C@@H](N)[C@H](F)CO2)cs1 [Example 384, N-[5-[(2S,5R,6S)-5-amino-6-fluoro-oxepan-2-yl]-1-methyl-pyrazol-4-yl]-2-(2-isopropoxy-3-pyridyl)thiazole-4-carboxamide] | 9.7 nM | 7200 nM | 5600 nM | 4400 nM | – |
| CO[C@@H]1CO[C@H](c2c(NC(=O)c3csc(-c4ncccc4C)n3)cnn2C)CC[C@H]1N [Example 348, N-(5-((2S,5R,6S)-5-amino-6-methoxyoxepan-2-yl)-1-methyl-1H-pyrazol-4-yl)-2-(3-methylpyridin-2-yl)thiazole-4-carboxamide] | 0.014 nM | 10500 nM | 359 nM | 1000 nM | – |
| Cn1ncc(NC(=O)c2csc(-c3c(F)cccc3F)n2)c1[C@H]1CC[C@H](N)[C@H](O)CO1 [Example 351, N-(5-((2R,5S,6S)-5-amino-6-hydroxyoxepan-2-yl)-1-methyl-1H-pyrazol-4-yl)-2-(2,6-difluorophenyl)thiazole-4-carboxamide] | 0.076 nM | 9900 nM | 621 nM | 520 nM | – |
| Cn1ncc(NC(=O)c2csc(-c3n[nH]c4ccccc34)n2)c1[C@@H]1CC[C@@H](N)[C@H](F)CO1 [Example 381, N-(5-((2S,5R,6S)-5-amino-6-fluorooxepan-2-yl)-1-methyl-1H-pyrazol-4-yl)-2-(1H-indazol-3-yl)thiazole-4-carboxamide] | 0.022 nM | 5800 nM | 79.4 nM | 640 nM | – |
| COc1cccc(-c2nc(C(=O)Nc3cnn(C)c3[C@@H]3CC[C@@H](N)[C@H](F)CO3)cs2)c1F [Example 362, N-(5-((2S,5R,6S)-5-amino-6-fluorooxepan-2-yl)-1-methyl-1H-pyrazol-4-yl)-2-(2-fluoro-3-methoxyphenyl)thiazole-4-carboxamide] | 0.036 nM | 3100 nM | 50.7 nM | 336 nM | – |
| Cn1ncc(NC(=O)c2csc(-c3c(F)cc(C4CC4)cc3F)n2)c1[C@@H]1CC[C@@H](N)[C@H](F)CO1 [Example 358, N-(5-((2S,5R,6S)-5-amino-6-fluorooxepan-2-yl)-1-methyl-1H-pyrazol-4-yl)-2-(4-cyclopropyl-2,6-difluorophenyl)thiazole-4-carboxamide] | 0.009 nM | 4100 nM | 68.2 nM | 938 nM | – |
| Cn1ncc(NC(=O)c2csc(-c3c(F)cc(C4(F)COC4)cc3F)n2)c1[C@@H]1CC[C@@H](N)[C@H](F)CO1 [Example 340, N-(5-((2S,5R,6S)-5-amino-6-fluorooxepan-2-yl)-1-methyl-1H-pyrazol-4-yl)-2-(2,6-difluoro-4-(3-fluorooxetan-3-yl)phenyl)thiazole-4-carboxamide] | 0.01 nM | 20700 nM | 51.7 nM | > 6200 nM | – |
| Cn1ncc(NC(=O)c2nc(-c3c(F)cccc3F)sc2N)c1[C@@]12CC[C@H](N)[C@@H](CC1)O2 [Example 117, 5-amino-N-(5-((1R,4S,5R)-4-amino-8-oxabicyclo[3.2.1]octan-1-yl)-1-methyl-1H-pyrazol-4-yl)-2-(2,6-difluorophenyl)thiazole-4-carboxamide] | – | – | 30.7 nM | 122 nM | – |
| C[C@@H]1O[C@H](c2c(NC(=O)c3nc(-c4c(F)cccc4F)sc3N)cnn2C)C[C@H](N)[C@@]1(C)O [Example 346, 5-amino-N-(5-((2S,4S,5R,6S)-4-amino-5-hydroxy-5,6-dimethyltetrahydro-2H-pyran-2-yl)-1-methyl-1H-pyrazol-4-yl)-2-(2,6-difluorophenyl)thiazole-4-carboxamide] | – | > 25000 nM | – | 4300 nM | 517 nM |
| C[C@H]1O[C@@H](c2c(NC(=O)c3ccc(F)c(-c4c(F)cccc4F)n3)cnn2C)C[C@@H](N)[C@]1(C)O (single isomer, unassigned) [Example 343] | – | 12800 nM | – | 781 nM | 342 nM |
| C[C@H]1O[C@@H](c2c(NC(=O)c3nc(-c4c(F)cccc4F)sc3N)cnn2C)C[C@@H](N)[C@]1(C)O (single isomer, unassigned) [Example 345] | – | > 25000 nM | – | > 25000 nM | 6800 nM |
| Cn1ncc(NC(=O)c2csc(-c3n[nH]c4c3CCCC4)n2)c1[C@@H]1CC[C@@H](N)[C@H](F)CO1 [Example 374, N-(5-((2S,5R,6S)-5-amino-6-fluorooxepan-2-yl)-1-methyl-1H-pyrazol-4-yl)-2-(4,5,6,7-tetrahydro-1H-indazol-3-yl)thiazole-4-carboxamide] | 0.023 nM | 13100 nM | – | – | – |
| Cc1ccc(-c2nc(C(=O)Nc3cnn(C)c3[C@@H]3CC[C@@H](N)[C@H](F)CO3)cs2)c(F)c1 [Example 316, N-(5-((2S,5R,6S)-5-amino-6-fluorooxepan-2-yl)-1-methyl-1H-pyrazol-4-yl)-2-(2-fluoro-4-methylphenyl)thiazole-4-carboxamide] | – | 9300 nM | – | 686 nM | 126 nM |
| Cn1ncc(NC(=O)c2nc(-c3c(Cl)cccc3C(F)(F)F)sc2N)c1[C@@H]1CC[C@@H](N)[C@H](F)CO1 [Example 329, 5-amino-N-(5-((2S,5R,6S)-5-amino-6-fluorooxepan-2-yl)-1-methyl-1H-pyrazol-4-yl)-2-(2-chloro-6-(trifluoromethyl)phenyl)thiazole-4-carboxamide] | – | 2400 nM | 348 nM | 1700 nM | – |
| Cn1ncc(NC(=O)c2nc(-c3c(F)cccc3F)sc2N)c1[C@]12CC[C@H](O1)[C@@H](N)CC2 [Example 115, 5-amino-N-(5-((1S,4S,5S)-4-amino-8-oxabicyclo[3.2.1]octan-1-yl)-1-methyl-1H-pyrazol-4-yl)-2-(2,6-difluorophenyl)thiazole-4-carboxamide] | – | – | 19.2 nM | – | – |
| C[C@@H]1O[C@H](c2c(NC(=O)c3ccc(F)c(-c4c(F)cccc4F)n3)cnn2C)C[C@H](N)[C@@]1(C)O [Example 344, N-(5-((2S,4S,5R,6S)-4-amino-5-hydroxy-5,6-dimethyltetrahydro-2H-pyran-2-yl)-1-methyl-1H-pyrazol-4-yl)-6-(2,6-difluorophenyl)-5-fluoropicolinamide] | – | 14000 nM | – | 9800 nM | 9000 nM |
| Cc1nn(C)c(F)c1-c1nc(C(=O)Nc2cnn(C)c2[C@@H]2CC[C@@H](N)[C@H](F)CO2)cs1 [Example 286, N-(5-((2S,5R,6S)-5-amino-6-fluorooxepan-2-yl)-1-methyl-1H-pyrazol-4-yl)-2-(5-fluoro-1,3-dimethyl-1H-pyrazol-4-yl)thiazole-4-carboxamide] | – | 11300 nM | – | 12600 nM | 947 nM |
| Cn1ncc(NC(=O)c2ccc(F)c(-c3c(F)cccc3F)n2)c1[C@@H]1CC[C@@H](N)[C@H](F)CO1 [Example 397, N-[5-[(2S,5R,6S)-5-amino-6-fluoro-oxepan-2-yl]-1-methyl-pyrazol-4-yl]-6-(2,6-difluorophenyl)-5-fluoro-pyridine-2-carboxamide] | 0.016 nM | – | – | – | – |
